The text below walks through data of patent US20080051387A1, “TETRAHYDROPYRIDO[3,4-D]PYRIMIDINES AND RELATED ANALOGUES” (priority 2006, published 2008).

Where two headings read alike, the source gives them in different places. A value given as a limit tells only on which side of the number the result lay.

The test concerns the target T1, chimeric human H3 receptor (Homo sapiens, UniProt Q9Y5N1).
T1 construct: rat Galpha-i2 (Gnai2, rat); made in house; host or cells: Sf9 insect cells (baculovirus); P2 membranes
As to the kind of experiment: Chimeric human H3 receptor screening GTP binding assay (inhibition of histamine-stimulated GTP-gamma35S binding, Example 8). The settings on record: test compound 4 μM, 1 μM histamine, read-out: percent inhibition of agonist-induced GTP-gammaS binding to H3. It is filed as biochemical. The method, then:
This Example illustrates a representative screening assay for evaluating inhibition of histamine-stimulated GTP-gamma^35S binding. Such GTP binding activity can be used to identify H3 antagonists and inverse agonists. A compound analyzed in this assay is referred to herein as a “test compound,” and the initial identification of antagonists and inverse agonists is performed using a test compound concentration of 4 μM.
Four independent baculoviral stocks (one directing the expression of the chimeric human H3 receptor and three directing the expression of each of the three subunits of a heterotrimeric G-protein) are used to infect a culture of Sƒ9 cells as described above. P2 membranes are prepared as described above, and are resuspended by Dounce homogenization (tight pestle) in GTP binding assay buffer (50 mM Tris pH 7.4, 120 mM NaCl, 5 mM MgCl2, 2 mM EGTA, 1 mg/ml BSA, 0.2 mg/ml bacitracin, 0.02 mg/ml aprotinin, 0.01 mg/ml saponin, 10 μM GDP) and added to assay tubes at a concentration of 35 μg protein/reaction tube. Non-radiolabeled test compounds are added to separate reactions at a concentration of 4 μM along with 1 μM histamine (agonist). Reactions are initiated by the addition of 125 pM GTP-gamma^35S with a final assay volume of 0.20 ml.
After a 60-min incubation at room temperature, reactions are terminated by vacuum filtration over GF/C filters (pre-soaked in 50 mM Tris pH 7.4, 120 mM NaCl plus 0.1% BSA) followed by washing with ice-cold buffer (50 mM Tris pH 7.4, 120 mM NaCl). The amount of receptor-bound (and thereby membrane-bound) GTP-gamma^35S is determined by measuring the bound radioactivity, preferably by liquid scintillation spectrometry of the washed filters. Non-specific binding is determined using 10 uM GTP-gammaS and typically represents less than 5 percent of total binding. After subtraction of non-specific binding, data is expressed as percent inhibition of 1 μM histamine signal.
Neutral antagonists are those test compounds that reduce the histamine-stimulated GTP binding activity towards, but not below, baseline levels. In contrast, in the absence of added histamine, inverse agonists reduce the GTP binding activity of the receptor-containing membranes below baseline. Any test compound that elevates GTP binding activity above baseline in the absence of added histamine in this assay is defined as having agonist activity.
For orientation: Binding of GTPγS marks nucleotide exchange on a G protein.

T1 sequence (Q9Y5N1 with tags, fused parts or gaps): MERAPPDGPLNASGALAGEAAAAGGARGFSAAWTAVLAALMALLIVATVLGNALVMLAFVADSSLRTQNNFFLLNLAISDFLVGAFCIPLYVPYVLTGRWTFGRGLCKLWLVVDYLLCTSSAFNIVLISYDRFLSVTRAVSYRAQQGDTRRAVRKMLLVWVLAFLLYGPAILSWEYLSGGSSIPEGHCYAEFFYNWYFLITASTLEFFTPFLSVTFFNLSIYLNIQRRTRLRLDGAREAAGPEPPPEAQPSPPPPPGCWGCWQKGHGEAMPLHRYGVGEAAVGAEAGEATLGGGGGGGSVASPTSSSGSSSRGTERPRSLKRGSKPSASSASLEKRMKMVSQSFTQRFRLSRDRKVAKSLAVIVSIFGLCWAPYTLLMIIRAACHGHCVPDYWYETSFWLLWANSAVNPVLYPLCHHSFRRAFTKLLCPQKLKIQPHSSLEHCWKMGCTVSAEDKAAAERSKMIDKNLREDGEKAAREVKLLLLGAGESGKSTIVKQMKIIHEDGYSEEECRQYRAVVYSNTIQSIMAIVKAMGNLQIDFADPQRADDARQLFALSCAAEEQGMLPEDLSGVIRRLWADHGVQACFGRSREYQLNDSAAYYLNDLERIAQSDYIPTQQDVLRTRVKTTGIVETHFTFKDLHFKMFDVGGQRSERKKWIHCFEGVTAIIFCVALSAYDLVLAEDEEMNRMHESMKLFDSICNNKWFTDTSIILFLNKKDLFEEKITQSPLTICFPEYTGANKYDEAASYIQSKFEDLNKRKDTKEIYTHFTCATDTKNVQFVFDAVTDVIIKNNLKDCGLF

Broadly, the inhibition is the share of the control response that was lost under treatment. Turning to `c1ccc(CN2CCc3c(ncnc3N3CCN(C4CCC4)CC3)C2)cc1` [Compound 1, 7-Benzyl-4-(4-cyclobutylpiperazin-1-yl)-5,6,7,8-tetrahydropyrido[3,4-d]pyrimidine], the inhibition at 4 µM is not below 90%. For `c1nc2c(c(N3CCN(C4CCC4)CC3)n1)CCN(CC1CCCCC1)C2` [Compound 2, 4-(4-Cyclobutylpiperazin-1-yl)-7-cyclohexylmethyl-5,6,7,8-tetrahydropyrido[3,4-d]pyrimidine], the inhibition at 4 µM was not below 90%. Consider `CC(=O)c1ccc(N2CCc3c(ncnc3N3CCN(C4CCC4)CC3)C2)cc1` [Compound 3, 1-{4-[4-(4-Cyclobutylpiperazin-1-yl)-5,8-dihydropyrido[3.4-d]pyrimidin-7(6H)-yl]phenyl}Ethanone], for which the inhibition at 4 µM was not below 90%. For `O=C(c1ccc(F)cc1)N1CCc2cnc(N3CCN(C4CCC4)CC3)nc2CC1` [Compound 10, [2-(4-Cyclobutyl-piperazin-1-yl)-5,6,8,9-tetrahydro-pyrimido[4.5-d]azepin-7-yl]-(4-fluoro-phenyl)-methanone], the inhibition at 4 µM was not below 90%. Still for that read-out and setting: then `CC(=O)c1ccc(N2CCc3cnc(N4CCN(C5CCC5)CC4)nc3CC2)cc1` [Compound 11, 1-{4-[2-(4-Cyclobutyl-piperazin-1-yl)-5,6,8,9-tetrahydro-pyrimido[4.5-d]azepin-7-yl]-phenyl}-ethanone], with not below 90%; and `O=S(=O)(c1ccccc1)N1CCc2cnc(N3CCN(C4CCC4)CC3)nc2CC1` [Compound 12, 7-Benzenesulfonyl-2-(4-Cyclobutyl-piperazin-1-yl)-6,7,8,9-tetrahydro-5H-pyrimido[4.5-d]azepine], with not below 90%. `CCN(CCN(C)C)c1ncnc2c1CCN(Cc1ccccc1)C2` [Compound 14, N-(7-benzyl-5,6,7,8-tetrahydropyrido[3,4-d]pyrimidin-4-yl)-N-ethyl-N′,N′-dimethylethane-1,2-diamine]: the inhibition at 4 µM (symbol ! in Ki) is not below 90%. The same measure, in the same setting: then `CCN(CC)C1CCN(c2ncnc3c2CCN(Cc2ccccc2)C3)C1` (stereo not drawn) [Compound 15, 1-(7-benzyl-5,6,7,8-tetrahydropyrido[3,4-d]pyrimidin-4-yl)-N,N-diethylpyrrolidin-3-amine], with not below 90%; and `c1ccc(CN2CCc3c(ncnc3N3CCN(C4CCCC4)CC3)C2)cc1` [Compound 16, 7-benzyl-4-(4-cyclopentylpiperazin-1-yl)-5,6,7,8-tetrahydropyrido[3,4-d]pyrimidine], with not below 90%; and `c1ccc(CN2CCc3c(ncnc3N3CCC(N4CCCCC4)CC3)C2)cc1` [Compound 17, 1′-(7-benzyl-5,6,7,8-tetrahydropyrido[3,4-d]pyrimidin-4-yl)-1,4′-bipiperidine], with not below 90%.

As for `c1ccc(CN2CCc3c(ncnc3N3CCC(N4CCCCCC4)CC3)C2)cc1` [Compound 18, 4-(4-azepan-1-ylpiperidin-1-yl)-7-benzyl-5,6,7,8-tetrahydropyrido[3,4-d]pyrimidine], the inhibition at 4 µM (symbol ! in Ki) was not below 90%. Turning to `c1ccc(CN2CCc3c(ncnc3N3CCN(CCCN4CCCC4)CC3)C2)cc1` [Compound 19, 7-benzyl-4-[4-(3-pyrrolidin-1-ylpropyl)piperazin-1-yl]-5,6,7,8-tetrahydropyrido[3,4-d]pyrimidine], for the setting “symbol ! in Ki”, the inhibition at 4 µM was not below 90%.

In the case of `CCN(CC)CCCN1CCN(c2ncnc3c2CCN(Cc2ccccc2)C3)CC1` [Compound 20, 3-[4-(7-benzyl-5,6,7,8-tetrahydropyrido[3,4-d]pyrimidin-4-yl)piperazin-1-yl]-N,N-diethylpropan-1-amine], under “symbol ! in Ki”, the inhibition at 4 µM was not below 90%.

For the molecule `c1ccc(CN2CCc3c(ncnc3N3CCN(CCCN4CCCCC4)CC3)C2)cc1` [Compound 21, 7-benzyl-4-[4-(3-piperidin-1-ylpropyl)piperazin-1-yl]-5,6,7,8-tetrahydropyrido[3,4-d]pyrimidine], under “symbol ! in Ki”, the inhibition at 4 µM was not below 90%. Still for that read-out and setting: then `O=C(c1ccccc1)N1CCc2c(ncnc2N2CCN(C3CCC3)CC2)C1` [Compound 22, 7-benzoyl-4-(4-cyclobutylpiperazin-1-yl)-5,6,7,8-tetrahydropyrido[3,4-d]pyrimidine], with not below 90%; and `Cc1cccc(C(=O)N2CCc3c(ncnc3N3CCN(C4CCC4)CC3)C2)c1` [Compound 23, 4-(4-cyclobutylpiperazin-1-yl)-7-(3-methylbenzoyl)-5,6,7,8-tetrahydropyrido[3,4-d]pyrimidine], with not below 90%; and `Cc1ccc(C(=O)N2CCc3c(ncnc3N3CCN(C4CCC4)CC3)C2)cc1` [Compound 24, 4-(4-cyclobutylpiperazin-1-yl)-7-(4-methylbenzoyl)-5,6,7,8-tetrahydropyrido[3,4-d]pyrimidine], with not below 90%. Same read-out and setting: then `Cc1ccccc1C(=O)N1CCc2c(ncnc2N2CCN(C3CCC3)CC2)C1` [Compound 25, 4-(4-cyclobutylpiperazin-1-yl)-7-(2-methylbenzoyl)-5,6,7,8-tetrahydropyrido[3,4-d]pyrimidine], with not below 90%. Same read-out and setting: then `COc1cccc(C(=O)N2CCc3c(ncnc3N3CCN(C4CCC4)CC3)C2)c1` [Compound 26, 4-(4-cyclobutylpiperazin-1-yl)-7-(3-methoxybenzoyl)-5,6,7,8-tetrahydropyrido[3,4-d]pyrimidine], with not below 90%; and `COc1ccc(C(=O)N2CCc3c(ncnc3N3CCN(C4CCC4)CC3)C2)cc1` [Compound 27, 4-(4-cyclobutylpiperazin-1-yl)-7-(4-methoxybenzoyl)-5,6,7,8-tetrahydropyrido[3,4-d]pyrimidine], with not below 90%. As for `COc1ccccc1C(=O)N1CCc2c(ncnc2N2CCN(C3CCC3)CC2)C1` [Compound 28, 4-(4-cyclobutylpiperazin-1-yl)-7-(2-methoxybenzoyl)-5,6,7,8-tetrahydropyrido[3,4-d]pyrimidine], under “symbol ! in Ki”, the inhibition at 4 µM is not below 90%. Still for that read-out and setting: then `O=C(c1cccc(F)c1)N1CCc2c(ncnc2N2CCN(C3CCC3)CC2)C1` [Compound 29, 4-(4-cyclobutylpiperazin-1-yl)-7-(3-fluorobenzoyl)-5,6,7,8-tetrahydropyrido[3,4-d]pyrimidine], with not below 90%; and `O=C(c1ccc(F)cc1)N1CCc2c(ncnc2N2CCN(C3CCC3)CC2)C1` [Compound 30, 4-(4-cyclobutylpiperazin-1-yl)-7-(4-fluorobenzoyl)-5,6,7,8-tetrahydropyrido[3,4-d]pyrimidine], with not below 90%. Consider `O=C(c1ccccc1F)N1CCc2c(ncnc2N2CCN(C3CCC3)CC2)C1` [Compound 31, 4-(4-cyclobutylpiperazin-1-yl)-7-(2-fluorobenzoyl)-5,6,7,8-tetrahydropyrido[3,4-d]pyrimidine], for which the inhibition at 4 µM (symbol ! in Ki) is not below 90%. Consider `O=C(c1ccco1)N1CCc2c(ncnc2N2CCN(C3CCC3)CC2)C1` [Compound 32, 4-(4-cyclobutylpiperazin-1-yl)-7-(2-furoyl)-5,6,7,8-tetrahydropyrido[3,4-d]pyrimidine], for which the inhibition at 4 µM (symbol ! in Ki) was not below 90%. The same measure, in the same setting: then `O=C(c1ccoc1)N1CCc2c(ncnc2N2CCN(C3CCC3)CC2)C1` [Compound 33, 4-(4-cyclobutylpiperazin-1-yl)-7-(3-furoyl)-5,6,7,8-tetrahydropyrido[3,4-d]pyrimidine], with not below 90%.

With `O=C(c1cccnc1)N1CCc2c(ncnc2N2CCN(C3CCC3)CC2)C1` [Compound 34, 4-(4-cyclobutylpiperazin-1-yl)-7-(pyridin-3-ylcarbonyl)-5,6,7,8-tetrahydropyrido[3,4-d]pyrimidine], the inhibition at 4 µM (symbol ! in Ki) was not below 90%. Still for that read-out and setting: then `O=C(c1ccccn1)N1CCc2c(ncnc2N2CCN(C3CCC3)CC2)C1` [Compound 35, 4-(4-cyclobutylpiperazin-1-yl)-7-(pyridin-2-ylcarbonyl)-5,6,7,8-tetrahydropyrido[3,4-d]pyrimidine], with not below 90%; and `O=C(c1ccno1)N1CCc2c(ncnc2N2CCN(C3CCC3)CC2)C1` [Compound 36, 4-(4-cyclobutylpiperazin-1-yl)-7-(isoxazol-5-ylcarbonyl)-5,6,7,8-tetrahydropyrido[3,4-d]pyrimidine], with not below 90%; and `Cc1noc(C)c1C(=O)N1CCc2c(ncnc2N2CCN(C3CCC3)CC2)C1` [Compound 37, 4-(4-cyclobutylpiperazin-1-yl)-7-[(3,5-dimethylisoxazol-4-yl)carbonyl]-5,6,7,8-tetrahydropyrido[3,4-d]pyrimidine], with not below 90%.
